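1) Cells in 96-well plates. 2) Compound, 48 h, 5 concentrations. 3) Linear interpolation between surrounding doses. 4) Unreached endpoint = highest concentration. Here, GI50 denotes the concentration required for 50% inhibition of growth. TGI: total growth inhibition.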
Assays:
Experiment in all cases: NCI tumour cell line growth inhibition, 48 h
[1] = tested on: DMS 114 small cell lung
[2] = tested on: KM20L2 colon
[3] = tested on: XF 498 CNS
[4] = tested on: DLD-1 colon
[5] = tested on: RXF-631 renal
[6] = tested on: LXFL 529 NSCLC
[7] = tested on: M19-MEL melanoma
[8] = tested on: MDA-N
[9] = tested on: HOP-18 NSCLC

Row | SMILES | TGI [1] [µM] | TGI [2] [µM] | TGI [3] [µM] | TGI [4] [µM] | TGI [5] [µM] | TGI [6] [µM] | TGI [7] [µM] | GI50 [1] [µM] | GI50 [2] [µM] | GI50 [3] [µM] | GI50 [4] [µM] | GI50 [6] [µM] | GI50 [7] [µM] | TGI [8] [µM] | TGI [9] [µM] | GI50 [8] [µM]
1 | COc1ccc(CC2NCCc3c2[nH]c2ccccc32)cc1 (stereo not drawn) | > 100 | > 100 | 66.5 | > 100 | 73.5 | > 100 | > 100 |  |  |  |  |  |  |  |  | 
2 | CCC[CH2][Sn]([Cl])([CH2]CCC)[CH2]CCC | 0.225 | 0.295 | 0.202 | 1.02 |  | 0.202 | 0.236 | 0.068 | 0.136 | 0.0599 | 0.0853 | 0.0645 | 0.11 |  |  | 
3 | CCOC(=O)Nc1ccc(C)c(NC(=O)OCC)c1 |  |  |  |  |  |  |  |  |  |  |  |  |  | > 100 |  | 
4 | CCC(C)COC(=O)c1ccc(N=Cc2ccc(C=Nc3ccc(C(=O)OCC(C)CC)cc3)cc2)cc1 (stereo not drawn) | > 100 | > 100 |  | > 100 | > 100 | > 100 |  |  |  |  |  |  |  |  | > 100 | 
5 | Cc1[nH]c2ccccc2c1C(=O)/C=C/c1ccccc1O |  | > 100 | > 100 | > 100 |  | > 100 | > 100 |  |  |  |  |  |  |  | > 100 | 
6 | CN(C)CC[PH+](c1ccccc1)c1ccccc1.CN(C)CC[PH+](c1ccccc1)c1ccccc1.[Cl-].[Pd+2] |  |  |  |  |  |  |  |  |  |  |  |  |  | > 100 |  | > 100
7 | O=C1/C(=C/c2ccc3c(c2)OCO3)SC2C=Nc3ccccc3N12 (stereo not drawn) | > 100 | > 100 | > 100 | > 100 | > 100 | > 100 | > 100 |  |  |  |  |  |  |  | > 100 | 
8 | O=C(CCc1n[nH]c(=S)o1)Nc1ccccc1C(F)(F)F | > 100 | > 100 |  | > 100 | > 100 | > 100 | > 100 |  |  |  |  |  |  |  | > 100 | 
9 | COc1cccc(C2=NC(C(C)C)CO2)c1 (stereo not drawn) | > 100 | > 100 | > 100 | > 100 |  | > 100 | > 100 |  |  |  |  |  |  |  |  | 
10 | CCOc1ccc(NC(=O)C(=O)CC(=O)c2c(C)n([O-])c3ccccc3[n+]2=O)cc1 | > 100 | > 100 | > 100 |  | > 100 | > 100 | > 100 |  |  |  |  |  |  |  | > 100 | 
11 | O=C1/C(=C/c2ccc(Cl)cc2)CCC1CCN1CCOCC1 (stereo not drawn) | > 100 | > 100 | > 100 | > 100 | > 100 | > 100 | > 100 |  |  |  |  |  |  |  | > 100 | 
12 | CN(C)C(n1cc2c(c1)-c1ccc(Cl)cc1C(c1ccccc1F)=NC2)n1cc2c(c1)-c1ccc(Cl)cc1C(c1ccccc1F)=NC2 |  |  |  |  |  |  |  |  |  |  |  |  |  | 52.7 |  | 
13 | CC12CP(=O)(c3ccccc3)CC1C2(Cl)Cl (stereo not drawn) | > 100 | > 100 | > 100 | > 100 |  | > 100 | > 100 |  |  |  |  |  |  |  | > 100 | 
14 | CC(=O)Oc1c2c(c(O)c3ccccc13)C(n1cnc3c(ncn3C3OC(CO)C4OC(C)(C)OC43)c1=N)CCC2 (stereo not drawn) | 21.7 | 53.5 |  | 27.4 |  |  | 23.8 |  |  |  |  |  |  |  | 34.6 | 
15 | O=c1ccn([C@H]2CSC[C@@H](CO)C2)c(=O)[nH]1 | > 100 | > 100 |  | > 100 | > 100 | > 100 | > 100 |  |  |  |  |  |  |  | > 100 | 
16 | C1CN2CCN3CCN4CCN1[P+]243 | > 100 | > 100 | > 100 | > 100 |  | > 100 | > 100 |  |  |  |  |  |  |  | > 100 | 
17 | CC(=O)OC12C=CC(=O)N1c1ccccc1C(=O)O2 (stereo not drawn) |  | > 100 | > 100 | > 100 |  | > 100 | > 100 |  |  |  |  |  |  |  | > 100 | 
18 | COC(=O)C(Cc1nc2ccc(Cl)cc2[nH]c1=O)/C(=N\N)C(=O)Nc1cc(C)c(Cl)cc1S(=O)(=O)O (stereo not drawn) | > 100 |  |  | > 100 |  | > 100 |  |  |  |  |  |  |  |  |  | 
19 | CCOc1ccc(NC(=O)CC#N)cc1 |  | > 100 | > 100 | > 100 | > 100 | > 100 | > 100 |  |  |  |  |  |  |  | > 100 | 
